Measured values as given in publication PMC12289066, “Identification of glutathione transferase (GST P1) inhibitors via a high-throughput screening assay and implications as alternative treatment options for breast cancers” (PLOS One, 2025).
Counter-ions that a name gives are not always drawn. Like-named read-outs stand apart in the source and are kept apart here.

Assays:
[1] = system: MDA-MB-231 cells; assay: MTT cytotoxicity assay, MDA-MB-231; type: cell-based, human; conditions: Homo sapiens, MDA-MB-231
Experimental: (§1) L929, MCF-7, and MDA-MB-231 cell lines were cultured in DMEM GlutaMAX media containing 10% heat-inactivated FBS and 1% (v/v) penicillin-streptomycin at 37°C and CO2 (5%). Cytotoxicity was determined using a 3-(4,5-dimethyl 2-thiazolyl)-2,5-diphenyl-2H-tetrazolium bromide (MTT) assay. 100 μL aliquots and approximately 50’000 cells/well were added to each well of flat-bottomed 96-well plates and incubated for 24 h in a humidified chamber at 37°C under saturated air with a 5% CO2 atmosphere. Stock solutions of 10 mM drug compounds were prepared in DMSO and were sequentially diluted with the cell culture buffer to give a final DMSO concentration of 0.5%. The solutions were added to the 96-well plates in 100 μL aliquots and 100 μL of buffer was added as a control to give a final drug compound concentration range of 0 − 100 μM. The plates were incubated for a further 72 h under the same conditions as before. MTT (10 μL, 5 mg/mL in Dulbecco’s phosphate-buffered saline) was added to each well and the plates were incubated for a further 3 h under the same conditions as before. The culture medium was aspirated from each well and the purple formazan crystals, formed by the mitochondrial dehydrogenase activity of vital cells, were dissolved in 100 μL DMSO. The absorbance of the resulting solutions was measured at 570 and 630 nm using a SpectraMax M5e multimode microplate reader and SoftMax Pro software, version 6.2.2. As the absorbance is directly proportional to the number of surviving cells, the percentage of surviving cells was calculated from the absorbance of wells relative to the control. The reported IC50 values are based on the mean from four independent experiments, each comprising three replicates per concentration.

[2] = molecular target: T1, GST P1-1 (Homo sapiens, UniProt P09211); assay: Determination of inhibitor binding mechanism (kinetic GST P1-1 activity assay); type: biochemical; conditions: from Km and Vmax versus reaction without inhibitor
T1 construct: purchased Sigma-Aldrich
Experimental: The GST P1-1 concentration used in the assays was 0.02 U mL^-1.
1 mM GSH final concentration was used. The GST P1-1 was pre-incubated with the GSH for 20 minutes at room temperature before the addition of 12.5 μL of 4 mM solution of CDNB. The reaction rate was recorded against time using UV/VIS spectrophotometer (SpectraMax M5e from Molecular devices) at […].
The drug compounds’ inhibition mechanism was investigated using the kinetic GST P1-1 activity assay. Concentrations of CDNB ranged from 0–40 mM with the drug solution at a constant concentration of 5 μM. Experiments were performed in duplicate.
The Michaelis-Menten constant, Km, and […] Vmax were calculated using GraphPad Prism 9 software. To identify the type of inhibition the Michaelis-Menten equation was applied (Eq. 1): […]
where v0 is the initial velocity of the reaction, Vmax is the maximum velocity achieved by the reaction at maximum concentrations of substrate, [S] is the concentration of substrate, and Km is the substrate concentration at which the reaction velocity is half of the Vmax (Michaelis-Menten constant). The Michaelis-Menten equation predicts a hyperbolic relationship between initial velocity and substrate concentration, describing the kinetic behavior of enzymes. Evaluating the differences in Km and Vmax compared with the reaction without an inhibitor allows the competition type of an inhibitor to be identified. Competitive inhibitors present an increase in the Km and with Vmax unaffected. Non-competitive inhibitors present a […] Vmax.

[3] = molecular target: T1, GST P1-1; assay: Determination of IC50 for GST P1-1 enzyme (dose-response / reconfirmation assay); type: biochemical
Experimental: (§2) Each drug compound was added to the respective well at a volume of 80 nL of 10 mM stock solution in DMSO, yielding a final compound concentration of 10 μM and a final DMSO concentration of 0.1%. Each plate’s first and last two columns were used as negative (no compound added – 80 nL per well of DMSO) and positive (80 nL of EA added with a final concentration of 50 μM) controls, respectively. The Gyger Certus Flex dispenser was set up using a freshly prepared 1 mM of GSH and 20 nM of GST P1-1, pH 7.4, in one syringe and 8 mM CDNB solution in pure ethanol in the other syringe. Into each well 80 μL of GST-GSH solution was dispensed and incubated at 25°C for 20 minutes before the reaction was initiated by the addition of 4 μL of CDNB solution. The plates were incubated for 2 h in the dark at 25°C and then the absorbance was of each well recorded on a BioTek Synergy NEO HTS multimode plate reader (Agilent®) at a wavelength of 340 nm.
The IC50 of the GST P1-1 enzyme was determined for the 80 drug compounds with the highest score in the GST P1-1 screening assay. The assay conditions were used for the screening assay and each drug compound was tested at 8 different concentrations (μM) starting at 30 µM final assay concentration with a half-log dilution and 2 replicates per concentration.

[4] = system: L929 cells; assay: MTT cytotoxicity assay, L929; type: cell-based, mouse; conditions: for selectivity towards the breast cancer cell lines: MCF-7 and MDA-MB-231 versus non-tumorigenic L929, 72 h MTT; for IC50: Mus musculus, L929, MTT, 72 h incubation, read-out: IC50 (average ± standard deviation) L929
Experimental: as §1, with “Cytotoxicity” for “L929, MCF-7, and MDA-MB-231 cell lines were cultured in DMEM GlutaMAX media containing 10% heat-inactivated FBS and 1% (v/v) penicillin-streptomycin at 37°C and CO2 (5%). Cytotoxicity”, “Stock solutions of 10 mM drug compounds were prepared in DMSO and were sequentially diluted with the cell culture buffer to give a final DMSO concentration of 0.5%. The solutions were added to the 96-well plates in 100 μL aliquots and 100 μL of buffer was added as a control to give a final drug compound concentration range of 0 − 100 μM.” left out

[5] = molecular target: T1, GST P1-1; assay: High-throughput GST P1-1 inhibition assay (384-well screen, CDNB/GSH); type: biochemical; conditions: compound 10 μM; score 0 = negative control (DMSO), 1 = positive control (EA 50 μM); average of duplicate
Experimental: as §2
The z’factor was calculated for each plate according to Zhang et al.. The Z-factor is a dimensionless, simple statistical characteristic for each HTS assay. This provides a valuable tool for the comparison and assessment of the quality of assays, and can be utilized in assay optimization and validation. For each plate, the concentration of product was normalized by assigning a score of 0 (0%) to the negative control (average of maximal concentration of product measured in the presence of enzyme without any inhibitor) and a score of 1 (100%) was assigned to the positive control (average minimal concentration of product measured in the presence of enzyme with the reference inhibitor, i.e., EA). The experiment was performed in duplicate and the score for each drug compound was calculated as an average ± standard deviation. […] An internal laboratory information management system (LIMS) was used for basic data processing, management, visualization, and statistical hit validation.

[6] = system: MCF-7 cells; assay: MTT cytotoxicity assay, MCF-7; type: cell-based, human; conditions: Homo sapiens, MCF7
Experimental: as §1

[7] = MTT, 72 h incubation, read-out: IC50 (average ± standard deviation) MDA-MB-231
[8] = compound alone, read-out: Concentration IC50 isolated (MDA-MB-231 cell line)
[9] = Table 2, rounded values, read-out: IC50 GSTP1 enzymatic reaction
[10] = MTT, 72 h incubation, read-out: IC50 (average ± standard deviation) MCF-7
[11] = compound alone, read-out: Concentration IC50 isolated (MCF-7 cell line)

T1 sequence (P09211 2-210 limits assumed): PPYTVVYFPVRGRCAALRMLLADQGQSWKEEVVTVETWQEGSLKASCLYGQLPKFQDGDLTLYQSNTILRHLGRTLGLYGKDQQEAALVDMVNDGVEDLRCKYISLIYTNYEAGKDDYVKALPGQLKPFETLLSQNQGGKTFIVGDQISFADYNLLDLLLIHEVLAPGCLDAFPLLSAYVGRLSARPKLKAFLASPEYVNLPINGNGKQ

CCc1ccc(/C=C2/SC(=S)NC2=O)cc1 [10058-F4]
IC50 [1, 7]: 15 ± 4 µM | IC50 [1, 8]: 15 µM | Inhibition mechanism [2]: Non-competitive | IC50 [3, 9]: 2.8 µM | Hill Slope (dose-response curve) ([3]; reconfirmation assay): 1.37 | IC50 ([3]; reconfirmation assay, Table S2, read-out: IC50 GSTP1): 2.75 µM | selectivity towards the breast cancer cell lines [4]: highly selective | IC50 [4]: > 100 µM | Score [5]: 0.731 | IC50 [6, 10]: 14 ± 2 µM | IC50 [6, 11]: 14 µM

C[C@H]1COC2=C1C(=O)C(=O)c1c2ccc2c1CCCC2(C)C [Cryptotanshinone 97.0%, Cryptotanshinone]
IC50 [1, 7]: 2.9 ± 0.3 µM | IC50 [1, 8]: 2.9 µM | Inhibition mechanism [2]: Non-competitive | IC50 [3, 9]: 8.9 µM | Hill Slope (dose-response curve) ([3]; reconfirmation assay): 0.85 | selectivity towards the breast cancer cell lines [4]: reasonable degree of selectivity | IC50 [4]: 4.4 ± 0.3 µM | Score [5]: 1.037 | IC50 [6, 10]: 0.29 ± 0.04 µM | IC50 [6, 11]: 0.29 µM

O=C1C(=Cc2cccnc2)C(=O)c2ccccc21 [PRT 4165]
IC50 [1, 7]: 27 ± 6 µM | IC50 [1, 8]: 27 µM | Inhibition mechanism [2]: Non-competitive | IC50 [3, 9]: 1.3 µM | Hill Slope (dose-response curve) ([3]; reconfirmation assay): 1.2 | selectivity towards the breast cancer cell lines [4]: reasonable degree of selectivity | IC50 [4]: > 100 µM | Score [5]: 0.890 | IC50 [6, 10]: 59 ± 7 µM | IC50 [6, 11]: 59 µM

CC(C)N(CCC(=O)c1ccc2ccccc2c1)Cc1ccccc1 [ZM 39923 (hydrochloride)]
IC50 [1, 7]: 2.6 ± 0.1 µM | IC50 [1, 8]: 2.6 µM | Inhibition mechanism [2]: Competitive | IC50 [3, 9]: 1.5 µM | Hill Slope (dose-response curve) ([3]; reconfirmation assay): 1.56 | selectivity towards the breast cancer cell lines [4]: reasonable degree of selectivity | IC50 [4]: 8.2 ± 0.6 µM | Score [5]: 0.788 | IC50 [6, 10]: 4.3 ± 0.1 µM | IC50 [6, 11]: 4.3 µM
